The results in this text go back to ChEMBL document CHEMBL3044981, “Production and optimization of oxytetracycline by a new isolate Streptomyces rimosus using response surface methodology” (2012).

≈ marks a conversion by molar mass, not a printed value.

Common to all, as to assay type: functional
One experiment concerns Proteus vulgaris. Kind of experiment: Antibacterial activity against multidrug-resistant Proteus vulgaris MTCC 1771 by broth dilution method.
The test system of the next experiment is Escherichia coli. The experiment in a line: Antibacterial activity against multidrug-resistant Escherichia coli MTCC 1667 by broth dilution method. For orientation: In broth dilution the organism is exposed to a series of concentrations in liquid medium.
The subject of experiment [1] is Staphylococcus epidermidis. The experiment in a line: Antibacterial activity against multidrug-resistant Staphylococcus epidermidis MTCC 435 by broth dilution method.
The subject of the next experiment is Klebsiella pneumoniae. Kind of experiment: Antibacterial activity against multidrug-resistant Klebsiella pneumoniae MTCC 2405 by broth dilution method.
Another experiment concerns Salmonella typhi. Kind of experiment: Antibacterial activity against multidrug-resistant Salmonella enterica subsp. enterica serovar Typhi MTCC 734 by broth dilution method.
In the next experiment the test system is Pseudomonas aeruginosa. The experiment in a line: Antibacterial activity against multidrug-resistant Pseudomonas aeruginosa by broth dilution method.
The subject of another experiment is Staphylococcus aureus. The experiment in a line: Antibacterial activity against multidrug-resistant Staphylococcus aureus MTCC 737 by broth dilution method.

One may read the MIC as the lowest concentration that inhibits growth of the organism. The low end stands for a more susceptible organism, the high end for a less susceptible organism. Take `CN(C)[C@@H]1C(O)=C(C(N)=O)C(=O)[C@@]2(O)C(O)=C3C(=O)c4c(O)cccc4[C@@](C)(O)[C@H]3[C@H](O)[C@@H]12` [OXYTETRACYCLINE]: the MIC came out at 12.5 µg/mL (≈ 27.1 µM) against Proteus vulgaris; 6.25 µg/mL (≈ 13.6 µM) with Escherichia coli; 3 µg/mL (≈ 6.52 µM) in experiment [1]; 12.5 µg/mL (≈ 27.1 µM) in the experiment with Klebsiella pneumoniae; 3 µg/mL (≈ 6.52 µM) with Salmonella typhi; 12.5 µg/mL (≈ 27.1 µM) in the experiment with Pseudomonas aeruginosa. Besides, the lowest concentration to inhibit growth with Staphylococcus aureus (MIC) was 3 µg/mL (≈ 6.52 µM).
